Test system: HCC1937 cells
Assay: Cell viability assay (MTS), HCC1937 cell line
Format: cell-based
Conditions: Homo sapiens, HCC1937 cell line (footnote a), 48 hours
Experimental: HCC1937 cells are plated in a 96 well plate format at a density of 10,000 cells per well. After incubation overnight, cells are treated with a compound (e.g., compound 5) at the following concentrations: 80, 40, 20, 10, 5, 2.5, 1.25 μM. Compound concentrations are prepared in RPMI via serial dilutions from a starting stock of 80 mM. Forty-eight (48) hours after compound treatment, cell viability is assessed using the Promega CellTiter 96 aqueous one proliferation assay (Promega G3582, MTS assay) according to manufacturer's protocol.
The cell viability data was analyzed with GraphPad Prism software. The values were log transformed and analyzed with non-linear regression (curve-fit) using log (inhibitor) vs. response—variable slope (four parameters) and constraining the bottom to equal zero. Unless otherwise indicated, the GI50 values provided in Table 1 correspond to the LNCaP cell viability assays.

GI50: 40.6 µM
Compound: O=S(=O)(N[C@@H](CN1CCNCC1)c1ccc(Cl)cc1)c1ccccc1 [Example 25, (R)-N-(1-(4-chlorophenyl)-2-(piperazin-1-yl)ethyl)benzenesulfonamide]

Source: patent US20260265190A1, “AROMATIC COMPOUNDS FOR USE AS PROTEIN PHOSPHATASE 2A (PP2A) MODULATORS” (RAPPTA THERAPEUTICS OY, priority 2022, published 2026)
